Experimental findings from patent publication US12263248B2, “Compounds and compositions for intracellular delivery of therapeutic agents” (ModernaTX, Inc., priority 2018, dated 2025) are described below.

Molecules are shown by their SMILES.

Data set [1] can be described thus: Particle size and polydispersity index of nanoparticle compositions (Zetasizer Nano ZS). The settings on record: Table 1A; for Size (nm): lipid:DSPC:cholesterol:PEG-DMG 50:10:38.5:1.5 mol %. In kind it is physicochemical. Summed up:
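In 1×PBS, the compositions were sized on a Zetasizer Nano ZS, which also reported their polydispersity index.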

A short description of data set [2]: Apparent (surface) pKa of the LNP formulation (TNS assay). Type of data set: physicochemical. The settings on record: Table 1A. Summed up:
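LNP (0.04 mg/mL mRNA) mixed with TNS reagent in 21 buffers spanning about pH 3-12, in triplicate; fluorescence plotted against pH as sigmoidal curve. Apparent pKa taken as […] curve inflection point; validated in 1× PBS and 20 mM Tris w/8% sucrose.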

The test system of data set [3] is luciferase (Luc) mRNA. The data set is described as follows: Luc expression, whole body bioluminescence after intravenous administration to mice. As to conditions: for Total Flux 3 hours / Total Flux 6 hours / Total Flux 24 hours: mice, i.v., 0.5 mg/kg, Luc mRNA; for Fold increase in total body Luc Flux relative to MC3 at 6 h: Table 3A; for Fold increase in total body Luc Flux relative to MC3 at 6 h / flux measured at 6 h relative to the MC3 formulation / 6 h Lipid/MC3 Avg. Luc Expression / Fold increase AUC Lipid/MC3 / AUC (h * p/s): i.v. administration; for flux measured at 6 h relative to the MC3 formulation: in words; for 6 h Lipid/MC3 Avg. Luc Expression / Fold increase AUC Lipid/MC3 / AUC (h * p/s): Table 3C. Type of data set: in vivo. Summed up: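 Luc mRNA nanoparticle formulations given intravenously to mice (n=6) at 0.5 mg/kg; whole-body bioluminescence imaged at 3, 6 and 24 h. CD-1 mice received IP D-luciferin (200 μL of 15 mg/mL) 15 min before imaging; total flux quantified by region of interest.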

Data set [4] has as its system luciferase (Luc) mRNA. The data set is described as follows: Luc expression in liver, lung, spleen and femur 6 hours after intravenous administration. Type of data set: in vivo. The settings on record: mice, intravenous, 0.5 mpk. Summed up: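 LNP-formulated mRNA given IV to mice (n=3) at 0.5 mpk; at 6 h, bioluminescence imaged ex vivo 15 min after IP D-luciferin (15 mg/mL, 200 μL), organs imaged within 25 min. Values are total flux by region of interest.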

The nature of data set [5]: Encapsulation efficiency of RNA (QUANT-IT RIBOGREEN RNA assay). Type of data set: physicochemical. As to conditions: Table 1A. An outline of the steps:
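RiboGreen fluorescence (ex ~480, em ~520 nm) compared between intact samples and Triton X-100-lysed samples after 15 min at 37 °C in TE buffer, pH 7.5. Percent free RNA is the blank-corrected intact/disrupted ratio.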

Take `CCCCCCCCCOC(=O)CCCCCCCN(CCCCCCCC(=O)OC(CCCCCCCC)CCCCCCCC)CCOCCO` [Compound 154, Heptadecan-9-yl 8-((2-(2-hydroxyethoxy)ethyl)(8-(nonyloxy)-8-oxooctylamino octanoate]: in data set [1], the PDI is recorded as 0.110 and the “Size (nm)” value came out at 92.9 nm. Besides, the pKa in data set [2] was 6.827. In addition, the “Lipid/MC3 AUC” value in the data set on luciferase (Luc) mRNA [3] (Table 3D, intravenous) stood at 0.29. Besides, in the data set on luciferase (Luc) mRNA [3] (Table 3D, intravenous, Luc), the “AUC (p/s * h)” value stood at 5.560E+010 p/s * h. Also, in the data set on luciferase (Luc) mRNA [3], the “Total Flux 3 hours” value is 2.49E+09, the “Total Flux 6 hours” value is given as 4.89E+09 and the “Total Flux 24 hours” value was found to be 6.26E+07. Moreover, in the data set on luciferase (Luc) mRNA [4], the “Total Flux Liver” value stood at 3.62E+08, the “Total Flux Lung” value was found to be 2.89E+06 and the “Total Flux Spleen” value was determined as 1.30E+07. For the same molecule, the “EE (%)” value in data set [5] was determined as 94.28%.
As for `CCCCCCCCC(CCCCCCCC)OC(=O)CCCCCCCN(CCO)CCCC(=O)OCC1CC1CCCCCC` (stereo not shown) [Compound 55, heptadecan-9-yl 8-((4-((2-hexylcyclopropyl)methoxy)-4-oxobutyl)(2-hydroxyethyl)amino)octanoate], in data set [1], the PDI is 0.16 and the “Size (nm)” value amounted to 91.6 nm. Moreover, in data set [2], the pKa was determined as 6.44. For the same molecule, in the data set with luciferase (Luc) mRNA [3], the “Fold increase in total body Luc Flux relative to MC3 at 6 h” value is listed as 1.52, the “flux measured at 6 h relative to the MC3 formulation” value is listed as “higher flux than MC3 formulations”, the “Total Flux 3 hours” value turned out to be 5.07E+10 and the “Total Flux 6 hours” value is on record as 1.68E+10. In addition, in the data set with luciferase (Luc) mRNA [3], the “Total Flux 24 hours” value worked out at 4.06E+08. In the data set with luciferase (Luc) mRNA [4], the “Total Flux Liver” value is reported as 1.92E+09, the “Total Flux Lung” value is listed as 7.02E+06 and the “Total Flux Spleen” value was 2.63E+07. For the same molecule, in data set [5], the “EE (%)” value amounted to 97.03%.
In the case of `CCCCCCCCCOC(=O)CCCCCCCN(CCO)CCCCCCCC(=O)Oc1ccc(CCCCC)c(CCCCC)c1` [Compound 118, 3,4-Dipentylphenyl 8-((2-hydroxyethyl)(8-(nonyloxy)-8-oxooctyl)amino)octanoate], in data set [1], the PDI turned out to be 0.08 and the “Size (nm)” value is on record as 72.1 nm. The pKa in data set [2] stood at 6.14. For the same molecule, in the data set on luciferase (Luc) mRNA [3], the “Total Flux 3 hours” value amounted to 1.46E+09, the “Total Flux 6 hours” value is 1.16E+09 and the “Total Flux 24 hours” value came to 4.37E+07. Moreover, in the data set with luciferase (Luc) mRNA [4], the “Total Flux Liver” value came to 1.72E+08, the “Total Flux Lung” value turned out to be 1.98E+06 and the “Total Flux Spleen” value is recorded as 2.49E+07. Further, the “EE (%)” value in data set [5] is reported as 98%.
In the case of `CCCCCCCCC(CCCCCCCC)OC(=O)CCCCCCCN(CCO)CCCCCCCC(=O)OC(CCCCCCCC)C1CC1` (stereo not shown) [Compound 65, 1-Cyclopropylnonyl 8-((8-(heptadecan-9-yloxy)-8-oxooctyl)(2-hydroxyethyl)amino)octanoate], in data set [1], the PDI was 0.12 and the “Size (nm)” value was 63.9 nm. For the same molecule, the pKa in data set [2] amounted to 6.36. In the data set with luciferase (Luc) mRNA [3], the “Fold increase in total body Luc Flux relative to MC3 at 6 h” value is listed as 3.16, the “Total Flux 3 hours” value is on record as 6.56E+10, the “Total Flux 6 hours” value stood at 7.01E+10 and the “Total Flux 24 hours” value worked out at 7.50E+08. In the data set on luciferase (Luc) mRNA [4], the “Total Flux Liver” value was 9.56E+09, the “Total Flux Lung” value is recorded as 3.79E+07 and the “Total Flux Spleen” value was 6.57E+07. In addition, in data set [5], the “EE (%)” value is 98.2%.
Take `CCCCCCCCCOC(=O)CCCCCCCN(CCO)CCCCCCCC(=O)OC1CCC(C2CCCCC2)CC1` (stereo not shown) [Compound 80, [1,1′—Bi(cyclohexan)]-4-yl 8-((2-hydroxyethyl)(8-(nonyloxy)-8-oxooctyl)amino)octanoate]: in data set [1], the PDI came out at 0.19 and the “Size (nm)” value is reported as 118 nm. For the same molecule, in data set [2], the pKa is listed as 7.52. Also, in the data set with luciferase (Luc) mRNA [3], the “Total Flux 3 hours” value is given as 2.76E+08, the “Total Flux 6 hours” value came to 3.26E+08 and the “Total Flux 24 hours” value was determined as 1.54E+07. Moreover, in the data set with luciferase (Luc) mRNA [4], the “Total Flux Liver” value is recorded as 1.09E+07, the “Total Flux Lung” value amounted to 8.97E+04 and the “Total Flux Spleen” value stood at 4.71E+06. In data set [5], the “EE (%)” value is 90.7%.
Consider `CCCCCCCCC(CCCCCCCC)OC(=O)CCCCCCCN(CCO)CCCC(=O)OCCCCCCC` [Compound 54, heptadecan-9-yl 8-((4-(heptyloxy)-4-oxobutyl)(2-hydroxyethyl)amino) octanoate], for which, in data set [1], the PDI came to 0.19 and the “Size (nm)” value turned out to be 112.9 nm. The pKa in data set [2] was determined as 6.51. In addition, in the data set on luciferase (Luc) mRNA [3], the “Fold increase in total body Luc Flux relative to MC3 at 6 h” value was 3.80, the “flux measured at 6 h relative to the MC3 formulation” value is given as “higher flux than MC3 formulations”, the “Total Flux 3 hours” value was determined as 5.36E+10 and the “Total Flux 6 hours” value was 4.18E+10. In the data set with luciferase (Luc) mRNA [3], the “Total Flux 24 hours” value turned out to be 9.07E+08. In addition, in the data set with luciferase (Luc) mRNA [4], the “Total Flux Liver” value stood at 5.57E+09, the “Total Flux Lung” value stood at 1.12E+07 and the “Total Flux Spleen” value is 1.64E+08. The “EE (%)” value in data set [5] is reported as 96.71%.
As for `CCCCCCCCCOC(=O)CCCCCCCN(CCO)CCCCCCCCCOC(=O)C(CCCCCC)CCCCCCCC` (stereo not shown) [Compound 134, 9-((2-Hydroxyethyl)(8-(nonyloxy)-8-oxooctyl)amino)nonyl 2-hexyldecanoate], in data set [1], the PDI is 0.110 and the “Size (nm)” value was determined as 85.6 nm. In addition, the pKa in data set [2] turned out to be 6.66. In the data set on luciferase (Luc) mRNA [3], the “6 h Lipid/MC3 Avg. Luc Expression” value is given as 3.99, the “Fold increase AUC Lipid/MC3” value is on record as 4.16, the “Total Flux 3 hours” value was found to be 2.01E+10 and the “Total Flux 6 hours” value is recorded as 2.91E+10. The “Total Flux 24 hours” value in the data set on luciferase (Luc) mRNA [3] is on record as 8.00E+08. The “AUC (h * p/s)” value with luciferase (Luc) mRNA [3] (Luc) was found to be 3.43E+11 h * p/s. In the data set on luciferase (Luc) mRNA [4], the “Total Flux Liver” value worked out at 1.73E+09, the “Total Flux Lung” value was 2.82E+06 and the “Total Flux Spleen” value is on record as 1.85E+07. Moreover, the “EE (%)” value in data set [5] is on record as 94.62%.
Regarding `CCCCCCCCCOC(=O)CCCN(C)CCCCCCCC(=O)OC(CCCCCCCC)CCCCCCCC` [Compound 126, Heptadecan-9-yl 8-(methyl(4-(nonyloxy)-4-oxobutyl)amino)octanoate], in data set [1], the PDI is 0.18 and the “Size (nm)” value is 77.4 nm. Further, the pKa in data set [2] was 6.00. In addition, in the data set with luciferase (Luc) mRNA [3], the “Total Flux 3 hours” value turned out to be 7.59E+09, the “Total Flux 6 hours” value was 1.09E+10 and the “Total Flux 24 hours” value worked out at 1.40E+08. In the data set with luciferase (Luc) mRNA [4], the “Total Flux Liver” value came out at 7.41E+08, the “Total Flux Lung” value stood at 2.68E+06 and the “Total Flux Spleen” value was 1.87E+07. Besides, the “EE (%)” value in data set [5] was determined as 96.8%.
Regarding `CCCCCCCCCOC(=O)CCCCCCCN(CCCCCCCC(=O)OC(CCCCCCCC)CCCCCCCC)CCN1CCN(C)CC1` [Compound 101, Heptadecan-9-yl 8-((2-(4-methylpiperazin-1-yl)ethyl)(8-(nonyloxy)-8-oxooctyl)amino)octanoate], in data set [1], the PDI is listed as 0.230 and the “Size (nm)” value is recorded as 91.7 nm. Further, the pKa in data set [2] is reported as 7.27. Besides, in the data set with luciferase (Luc) mRNA [3], the “6 h Lipid/MC3 Avg. Luc Expression” value stood at 0.019, the “Fold increase AUC Lipid/MC3” value worked out at 0.022, the “Total Flux 3 hours” value is given as 1.89E+08 and the “Total Flux 6 hours” value is listed as 1.41E+08. Moreover, in the data set with luciferase (Luc) mRNA [3], the “Total Flux 24 hours” value came to 3.64E+06. Further, the “AUC (h * p/s)” value in the data set on luciferase (Luc) mRNA [3] (Luc) is 1.8E+09 h * p/s. Besides, in the data set with luciferase (Luc) mRNA [4], the “Total Flux Liver” value is 1.27E+07, the “Total Flux Lung” value was determined as 1.77E+05 and the “Total Flux Spleen” value is given as 5.60E+06. The “EE (%)” value in data set [5] turned out to be 98.96%.

In general, pKa refers to the negative logarithm of the acid dissociation constant.
